From patent US9255080B2, “Quinazolinedione derivatives as PARP inhibitors” (Janssen Pharmaceutica NV, priority 2004, dated 2016)

target: PARP-1 enzyme (Homo sapiens, UniProt P09874); assay: In vitro scintillation proximity assay (SPA) for PARP-1 inhibitory activity; assay type: biochemical; conditions: not given
Method: In Vitro Scintillation Proximity Assay (SPA) for PARP-1 Inhibitory Activity
Compounds of the present invention were tested in an in vitro assay based on SPA technology (proprietary to Amersham Pharmacia Biotech).
In principle, the assay relies upon the well established SPA technology for the detection of poly(ADP-ribosyl)ation of biotinylated target proteins, i.e histones. This ribosylation is induced using nicked DNA activated PARP-1 enzyme and [^3H]-nicotinamide adenine dinucleotide ([^3H]-NAD^+) as ADP-ribosyl donor.
As inducer of PARP-1 enzyme activity, nicked DNA was prepared. For this, 25 mg of DNA (supplier: Sigma) was dissolved in 25 ml DNAse buffer (10 mM Tris-HCl, pH 7.4; 0.5 mg/ml Bovine Serum Albumine (BSA); 5 mM MgCl2.6H2O and 1 mM KCl) to which 50 μl DNAse solution (1 mg/ml in 0.15 M NaCl) was added. After an incubation of 90 min. at 37° C., the reaction was terminated by adding 1.45 g NaCl, followed by a further incubation at 58° C. for 15 min. The reaction mixture was cooled on ice and dialysed at 4° C. for respectively 1.5 and 2 hours against 1.5 l of 0.2 M KCl, and twice against 1.5 l of 0.01 M KCl for 1.5 and 2 h respectively. The mixture was aliquoted and stored at −20° C. Histones (1 mg/ml, type II-A, supplier: Sigma) were biotinylated using the biotinylation kit of Amersham and stored aliquoted at −20° C. A stock solution of 100 mg/ml SPA poly(vinyl toluene) (PVT) beads (supplier: Amersham) was made in PBS. A stock solution of [^3H]-NAD^+ was made by adding 120 μl of [^3H]-NAD^+ (0.1 mCi/ml, supplier: NEN) to 6 ml incubation buffer (50 mM Tris/HCl, pH 8; 0.2 mM DTT; 4 mM MgCl2). A solution of 4 mM NAD^+ (supplier: Roche) was made in incubation buffer (from a 100 mM stock solution in water stored at −20° C.). The PARP-1 enzyme was produced using art known techniques, i.e. cloning and expression of the protein starting from human liver cDNA. Information concerning the used protein sequence of the PARP-1 enzyme including literature references can be found in the Swiss-Prot database under primary accession number P09874. Biotinylated histones and PVT-SPA beads were mixed and pre-incubated for 30 min. at room temperature. PARP-1 enzyme (concentration was lot dependent) was mixed with the nicked DNA and the mixture was pre-incubated for 30 min. at 4° C. Equal parts of this histones/PVT-SPA beads solution and PARP-1 enzyme/DNA solution were mixed and 75 μl of this mixture together with 1 μl of compound in DMSO and 25 μl of [^3H]-NAD^+ was added per well into a 96-well microtiterplate. The final concentrations in the incubation mixture were 2 μg/ml for the biotinylated histones, 2 mg/ml for the PVT-SPA beads, 2 μg/ml for the nicked DNA and between 5-10 μg/ml for the PARP-1 enzyme. After incubation of the mixture for 15 min. at room temperature, the reaction was terminated by adding 100 μl of 4 mM NAD^+ in incubation buffer (final concentration 2 mM) and plates were mixed.
The beads were allowed to sediment for at least 15 min. and plates transferred to a TopCountNXT™ (Packard) for scintillation counting, values were expressed as counts per minute (cpm). For each experiment, controls (containing PARP-1 enzyme and DMSO without compound), a blank incubation (containing DMSO but no PARP-1 enzyme or compound) and samples (containing PARP-1 enzyme and compound dissolved in DMSO) were run in parallel. All compounds tested were dissolved and eventually further diluted in DMSO. In first instance, compounds were tested at a concentration of 10^−5M. […] In each test, the blank value was subtracted from both the control and the sample values. The control sample represented maximal PARP-1 enzyme activity. For each sample, the amount of cpm was expressed as a percentage of the mean cpm value of the controls. […] Herein the effects of test compounds are expressed as pIC50 (the negative log value of the IC50-value).

PARP-1 enzyme, sequence (P09874 whole entry): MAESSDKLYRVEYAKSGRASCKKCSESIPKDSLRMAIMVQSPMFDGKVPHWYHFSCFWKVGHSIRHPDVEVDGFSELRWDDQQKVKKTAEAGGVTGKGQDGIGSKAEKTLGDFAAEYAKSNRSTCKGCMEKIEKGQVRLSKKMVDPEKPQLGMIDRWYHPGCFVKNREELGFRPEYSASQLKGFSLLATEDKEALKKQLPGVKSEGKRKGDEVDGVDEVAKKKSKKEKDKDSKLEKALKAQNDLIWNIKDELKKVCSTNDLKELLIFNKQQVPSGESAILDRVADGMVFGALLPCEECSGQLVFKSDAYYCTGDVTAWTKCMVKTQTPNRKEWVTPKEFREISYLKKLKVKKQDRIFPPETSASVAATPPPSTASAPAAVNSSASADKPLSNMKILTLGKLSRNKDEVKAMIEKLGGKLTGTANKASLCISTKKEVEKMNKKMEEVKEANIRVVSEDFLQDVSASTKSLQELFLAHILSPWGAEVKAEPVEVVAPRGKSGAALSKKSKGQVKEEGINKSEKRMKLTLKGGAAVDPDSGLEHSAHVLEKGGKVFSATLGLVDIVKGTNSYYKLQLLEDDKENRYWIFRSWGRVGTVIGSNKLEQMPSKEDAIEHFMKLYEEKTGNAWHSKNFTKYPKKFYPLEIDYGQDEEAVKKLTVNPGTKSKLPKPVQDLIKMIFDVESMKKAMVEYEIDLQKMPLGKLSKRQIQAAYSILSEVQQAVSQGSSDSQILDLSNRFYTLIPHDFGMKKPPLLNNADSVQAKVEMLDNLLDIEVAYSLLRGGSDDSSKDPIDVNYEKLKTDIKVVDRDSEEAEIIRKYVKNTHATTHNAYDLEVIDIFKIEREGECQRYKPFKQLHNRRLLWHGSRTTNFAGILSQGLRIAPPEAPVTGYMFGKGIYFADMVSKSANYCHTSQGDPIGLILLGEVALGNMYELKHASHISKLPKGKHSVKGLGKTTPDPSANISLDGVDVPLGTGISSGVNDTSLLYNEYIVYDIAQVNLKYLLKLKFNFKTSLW

| Structure (SMILES) | IC50 [nM] |
| --- | --- |
| O=c1[nH]c(=O)n(CCCN2CCC(c3c[nH]c4ccccc34)CC2)c2ccccc12 [Compound 3] | 136 |

same assay, conditions: [3H]-NAD+, biotinylated histones, nicked DNA; read-out: in vitro SPA assay PARP-1 pIC50 (converted)

| Structure (SMILES) | IC50 [nM] |
| --- | --- |
| O=c1[nH]c(=O)n(C2CCN(CCCn3c(=O)[nH]c4ccccc43)CC2)c2ccccc12 [Compound 5] | 348 |
| O=c1[nH]c(=O)n(C2CCN(CC(O)C3CCc4ccccc4O3)CC2)c2ccccc12 (stereo in doubt) [Compound 9, 1-[1-[(2S)-2-[(2R)-3,4-dihydro-2H-1-benzopyran-2-yl]-2-hydroxyethyl]-4-piperidinyl]-2,4(1H,3H)-quinazolinedione] | 359 |
| O=c1[nH]c(=O)n(C2CCNCC2)c2ccccc12 [Compound 1] | 204 |
| O=C(c1ccc(F)cc1)C1CCN(CCn2c(=O)[nH]c(=O)c3ccccc32)CC1 [Compound 10, 1-[2-[4-(4-fluorobenzoyl)-1-piperidinyl]ethyl]-2,4-(1H,3H)-quinazolinedione] | 220 |
| O=C(c1ccc(F)cc1)C1CCN(CCCn2c(=O)[nH]c(=O)c3ccccc32)CC1 [Compound 11, 1-[3-[4-(4-fluorobenzoyl)-1-piperidinyl]propyl]-2,4-(1H,3H)-quinazolinedione] | 221 |
| O=c1[nH]c(=O)n(CCCN2CCC(O)(c3ccc(Cl)cc3)CC2)c2ccccc12 [Compound 7] | 292 |
| O=C(CCCN1CCC(n2c(=O)[nH]c(=O)c3ccccc32)CC1)c1ccc(F)cc1 [Compound 2] | 257 |
| O=c1[nH]c(=O)n(CCN2CCC(O)(c3ccc(Cl)cc3)CC2)c2ccccc12 [Compound 6] | 167 |
